Values quoted from earlier work as cited in patent US20260131010A1, “MENIN PROTEOLYSIS TARGETING CHIMERAS (PROTACS)” (Board of Regents, The University of Texas System, priority 2022, published 2026).

Tested on: MLL leukemias
Details: Borkin, et al. Cancer Cell 2015, 27(4) 589-602

Cc1c(CN2CCC(Nc3ncnc4sc(CC(F)(F)F)cc34)CC2)ccc2c1cc(C#N)n2Cc1cn[nH]c1 [MI-503]
efficacy in mouse models of MLL leukemias: effective
